Assays:
Experiment in all cases: relative viability (nuclei count vs DMSO), 5 days (fraction); higher = more cells survive
[1] = test system: NCI-H322M
Outline: (§1)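 Relative viability was taken as the ratio of nuclei in treated wells to nuclei in vehicle wells. Lung cancer cell lines in 1536-well plates received compounds by pin tool one day after seeding, either one drug alone or a fixed anchor-drug dose plus five library-drug doses (not always all listed) in √10 steps. Nuclei were counted on 4× images after 5 days of treatment, and values are medians of duplicate plates.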

[2] = test system: NCI-H838
Outline: as §1

[3] = test system: UMC-11
Outline: as §1

[4] = test system: RERF-LC-KJ
Outline: as §1

[5] = test system: ABC-1
Outline: as §1

[6] = test system: NCI-H2023
Outline: as §1

[7] = test system: A-427
Outline: as §1

[8] = test system: NCI-H1793
Outline: as §1

[9] = test system: NCI-H2009
Outline: as §1

[10] = test system: NCI-H441
Outline: as §1

[11] = test system: NCI-H1944
Outline: as §1

[12] = test system: HCC-15
Outline: as §1

[13] = test system: NCI-H1915
Outline: as §1

[14] = test system: NCI-H1734
Outline: as §1

[15] = test system: SW 1573
Outline: as §1

[16] = test system: NCI-H2347
Outline: as §1

[17] = test system: EPLC-272H
Outline: as §1

[18] = test system: LC-2-ad
Outline: as §1

[19] = test system: LK-2
Outline: as §1

[20] = test system: NCI-H647
Outline: as §1

[21] = test system: NCI-H358
Outline: as §1

CCNC(=O)c1noc(-c2cc(C(C)C)c(O)cc2O)c1-c1ccc(CN2CCOCC2)cc1 [Luminespib] + Cc1nc(NC(=O)N2CCC[C@H]2C(N)=O)sc1-c1ccnc(C(C)(C)C(F)(F)F)c1 [Alpelisib] (partner 2 µM) was tested, and the relative viability ([1]; first compound 0.002 µM) was 0.774, the relative viability ([1]; first compound 0.006325 µM) was 0.711 and the relative viability ([1]; first compound 0.02 µM) was 0.588. The relative viability ([1]; first compound 0.06325 µM) was 0.751, the relative viability ([1]; first compound 0.2 µM) was 0.807 and the relative viability ([2]; first compound 0.002 µM) was 1.03. The relative viability ([2]; first compound 0.006325 µM) was 0.927, the relative viability ([2]; first compound 0.02 µM) was 0.589 and the relative viability ([2]; first compound 0.06325 µM) was 0.168. It also gave a relative viability ([2]; first compound 0.2 µM) of 0.153, a relative viability ([3]; first compound 0.002 µM) of 0.943 and a relative viability ([3]; first compound 0.006325 µM) of 0.907. The relative viability ([3]; first compound 0.02 µM) was 0.653, the relative viability ([3]; first compound 0.06325 µM) was 0.342 and the relative viability ([3]; first compound 0.2 µM) was 0.129. The relative viability ([4]; first compound 0.002 µM) was 0.813, the relative viability ([4]; first compound 0.006325 µM) was 0.894 and the relative viability ([4]; first compound 0.02 µM) was 0.51. The relative viability ([4]; first compound 0.06325 µM) was 0.541, the relative viability ([4]; first compound 0.2 µM) was 0.242 and the relative viability ([5]; first compound 0.002 µM) was 0.976. For the same molecule, the relative viability ([5]; first compound 0.006325 µM) was 0.95, the relative viability ([5]; first compound 0.02 µM) was 1.15 and the relative viability ([5]; first compound 0.06325 µM) was 0.392. For the same molecule, the relative viability ([5]; first compound 0.2 µM) was 0.3, the relative viability ([6]; first compound 0.002 µM) was 0.59 and the relative viability ([6]; first compound 0.006325 µM) was 0.609. The relative viability ([6]; first compound 0.02 µM) was 0.529, the relative viability ([6]; first compound 0.06325 µM) was 0.255 and the relative viability ([6]; first compound 0.2 µM) was 0.0672. It also gave a relative viability ([7]; first compound 0.002 µM) of 1.02, a relative viability ([7]; first compound 0.006325 µM) of 1.07 and a relative viability ([7]; first compound 0.02 µM) of 0.697. The relative viability ([7]; first compound 0.06325 µM) was 1.08, the relative viability ([7]; first compound 0.2 µM) was 1.09 and the relative viability ([8]; first compound 0.002 µM) was 0.806. The relative viability ([8]; first compound 0.006325 µM) was 0.536, the relative viability ([8]; first compound 0.02 µM) was 0.319 and the relative viability ([8]; first compound 0.06325 µM) was 0.212. The relative viability ([8]; first compound 0.2 µM) was 0.165, the relative viability ([9]; first compound 0.002 µM) was 1.29 and the relative viability ([9]; first compound 0.006325 µM) was 1.02. It also gave a relative viability ([9]; first compound 0.02 µM) of 1.28, a relative viability ([9]; first compound 0.06325 µM) of 0.698 and a relative viability ([9]; first compound 0.2 µM) of 0.0841. It also gave a relative viability ([10]; first compound 0.002 µM) of 0.619, a relative viability ([10]; first compound 0.006325 µM) of 0.825 and a relative viability ([10]; first compound 0.02 µM) of 0.739. It also gave a relative viability ([10]; first compound 0.06325 µM) of 0.126, a relative viability ([10]; first compound 0.2 µM) of 0.148 and a relative viability ([11]; first compound 0.002 µM) of 0.861. For the same molecule, the relative viability ([11]; first compound 0.006325 µM) was 0.826, the relative viability ([11]; first compound 0.02 µM) was 0.539 and the relative viability ([11]; first compound 0.06325 µM) was 0.755. For the same molecule, the relative viability ([11]; first compound 0.2 µM) was 0.781, the relative viability ([12]; first compound 0.002 µM) was 0.964 and the relative viability ([12]; first compound 0.006325 µM) was 0.852. For the same molecule, the relative viability ([12]; first compound 0.02 µM) was 0.773, the relative viability ([12]; first compound 0.06325 µM) was 0.54 and the relative viability ([12]; first compound 0.2 µM) was 0.492. For the same molecule, the relative viability ([13]; first compound 0.002 µM) was 1.09, the relative viability ([13]; first compound 0.006325 µM) was 0.987 and the relative viability ([13]; first compound 0.02 µM) was 0.862. It also gave a relative viability ([13]; first compound 0.06325 µM) of 1.08, a relative viability ([13]; first compound 0.2 µM) of 1.04 and a relative viability ([14]; first compound 0.002 µM) of 0.708. The relative viability ([14]; first compound 0.006325 µM) was 0.736, the relative viability ([14]; first compound 0.02 µM) was 0.541 and the relative viability ([14]; first compound 0.06325 µM) was 0.213. It also gave a relative viability ([14]; first compound 0.2 µM) of 0.158, a relative viability ([15]; first compound 0.002 µM) of 0.714 and a relative viability ([15]; first compound 0.006325 µM) of 0.728. The relative viability ([15]; first compound 0.02 µM) was 0.501, the relative viability ([15]; first compound 0.06325 µM) was 0.165 and the relative viability ([15]; first compound 0.2 µM) was 0.113. It also gave a relative viability ([16]; first compound 0.002 µM) of 1.14, a relative viability ([16]; first compound 0.02 µM) of 0.779 and a relative viability ([16]; first compound 0.06325 µM) of 0.936. For the same molecule, the relative viability ([16]; first compound 0.2 µM) was 0.382, the relative viability ([17]; first compound 0.006325 µM) was 0.811 and the relative viability ([17]; first compound 0.02 µM) was 0.674. It also gave a relative viability ([17]; first compound 0.06325 µM) of 0.879, a relative viability ([17]; first compound 0.2 µM) of 0.93 and a relative viability ([18]; first compound 0.002 µM) of 0.881. It also gave a relative viability ([18]; first compound 0.006325 µM) of 0.821, a relative viability ([18]; first compound 0.02 µM) of 0.858 and a relative viability ([18]; first compound 0.06325 µM) of 0.123. For the same molecule, the relative viability ([18]; first compound 0.2 µM) was 0.092, the relative viability ([19]; first compound 0.002 µM) was 1.26 and the relative viability ([19]; first compound 0.006325 µM) was 1.31. For the same molecule, the relative viability ([19]; first compound 0.02 µM) was 0.691, the relative viability ([19]; first compound 0.06325 µM) was 0.71 and the relative viability ([19]; first compound 0.2 µM) was 0.259. The relative viability ([20]; first compound 0.002 µM) was 1.25, the relative viability ([20]; first compound 0.006325 µM) was 1.12 and the relative viability ([20]; first compound 0.02 µM) was 1.03. For the same molecule, the relative viability ([20]; first compound 0.06325 µM) was 0.103, the relative viability ([20]; first compound 0.2 µM) was 0.0917 and the relative viability ([21]; first compound 0.002 µM) was 0.841. It also gave a relative viability ([21]; first compound 0.006325 µM) of 0.76, a relative viability ([21]; first compound 0.02 µM) of 0.635 and a relative viability ([21]; first compound 0.06325 µM) of 0.117. For the same molecule, the relative viability ([21]; first compound 0.2 µM) was 0.128.

Reference: the supplement of paper PMC10307832
